# In patent publication US6603023B2 (priority 1996, dated 2003):
# Read-outs that look alike come from different tables or passages of the source. Starred links: 1 amine or outer side, 2 acyl side, 3 side chain; linkers in the order of their positions; H or OH if unused. Positions of bridges follow the written chain, without caps; N, C: chain ends. Non-standard residues stand in square brackets, D forms with d. Residues, ends and D or L forms follow the SMILES beside them. Chains are numbered I, II in the order given. Actinocin(9to1) = Cc1c2oc3c(C)ccc(C(=O)[*:1])c3nc-2c(C(=O)[*:2])c(N)c1=O; NMeV = CN[C@H](C(=O)O)C(C)C; Sar = CNCC(=O)O
# Tests used:
# [1] = test system: SK-N-FI; experiment: cells; format: cell-based, human; conditions: Table 1C
# Experimental: (§1) The drug-resistant cell lines were continuously cultured in the presence of the selecting agent, AD, DX, VBL or VM to maintain the drug resistant phenotypes. […] All cells were cultured in RPMI 1640-10% FBS at 37° C. 5% CO2 (see below).
# (§2) The cytotoxicity of the drug toward the monolayer cell cultures (such as DC-3F, MCF-7, SK-N-As and sublines) was determined in 96-well microtiter plates by the SRB method as described by Skehan and co-workers (Skehan, P., et al., J. Natl. Cancer Inst. 1990, 82, 1107-1112) for measuring the cellular protein content. Cultures were fixed with trichloroacetic acid and then stained for 30 min with 0.4% suforhodamine B dissolved in 1% acetic acid. Unbound dye was removed by acetic acid washes, and the protein-bound dye was extracted with an unbuffered Tris base (tris(hydroxy-methyl)aminomethane) for determination of absorbance at 570 nm in a 96-well microtiter plate reader. The experiments were carried out in duplicate. Each run entailed six to seven concentrations of the tested drugs. Data were analyzed with the median-effect plot (Chou, T.-C. & Talalay, P. T. (1984) Adv. Enzyme Regul. 22, 27-55) using a previously described computer program (Chou, J., & Chou T.-C. 1987, Dose-effect analysis with microcomputers: Quantitation of ED50, synergism, antagonism, low-dose risk, reception-ligand binding and enzyme kinetics, IBM-PC software and manual, Biosoft, Cambridge, U.K.).
# [2] = test system: P388/Adr; experiment: cells; format: cell-based, murine; conditions: Table 1C
# Experimental: as §1
# (§3) The cells were cultured at an initial density of 5×10^4 cells/mL. They were maintained in a 5% CO2-humidified atmosphere at 37° C. in RPMI-1640 medium (GIBCO-BRL, Gaithersburg, Md.) containing penicillin (100 U/mL), streptomycin ([…]) (GIBCO-BRL) and 10% heat inactivate fetal bovine serum. Culture for cell suspension (such as for CCRF-CEM, P388 and sublines), were performed by the XTT-microculture tetrazonium method (Scudiero, D. A. et al., Cancer Res. 1988, 48, 4827-4833) in duplicate in 96-well microtiter plates.
# (§4) 2′,3′-Bis(methoxy-4-nitro-5-sufophenyl)-5-[(phenylamino)carbonyl]2H-tetrazolium hyudroxide (XTT) was prepared at 1 mg/mL in prewarmed (37° C.) medium without serum. Phenazine methosulfate (PMS) and fresh XTT were mixed together to obtain 0.025 mM PMS-XTT solution (25 μL of the stock 5 mM PMS was added per 5 mL of 1 mg/mL XTT). Following a 72 h incubation, 50 μL of the assay aliquots were added to each well of the cell culture. After incubation at 37° C. for 4 h, absorbance at 450 nm and 630 nm was measured with a microplate reader (EL340, Bio-Tek Instruments, Inc., Winooski, Vt.).
# [3] = test system: MCF-7; experiment: SRB cytotoxicity, MCF-7; format: cell-based, human; conditions: Table 1C; SRB, 72 h; read-out: IC50
# Experimental: as §2
# [4] = test system: murine leukemic P388/0; experiment: XTT cytotoxicity, P388/0; format: cell-based; conditions: Table 1C; XTT, 72 h; read-out: IC50
# Experimental: (§5) The DC-3F hamster lung fibroblast cell line and its actinomycin D-selected sublines (DC-3F/ADII and DC-3F/ADX) were obtained from the Memorial Sloan-Kettering Cancer Center (MSKCC).
# as §1, §3, §4
# [5] = test system: human neuroblastoma SK-N-As; experiment: SRB cytotoxicity, SK-N-As; format: cell-based; conditions: Table 1C; SRB, 72 h; read-out: IC50
# Experimental: as §5, §1, §2
# [6] = test system: CCRF-CEM human T-cell acute lymphoblastic leukemia cell line; experiment: XTT cytotoxicity (cell growth inhibition), CCRF-CEM; conditions: Table 1A; XTT, 72 h
# In short: (§6)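 Suspension leukemic cells (CCRF-CEM, P388 and drug-resistant sublines kept under the selecting agent) were seeded at 5×10^4 cells/mL in RPMI-1640 with 10% FBS at 37 °C. After 72 h drug exposure in duplicate, PMS-XTT was added for 4 h. Absorbance was read at 450 and 630 nm.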
# [7] = test system: CCRF-CEM/Taxol®; experiment: cells; format: cell-based, human
# In short: as §6
# [8] = test system: CCRF-CEM/VM1; experiment: cells; format: cell-based, human; conditions: Table 1A
# In short: as §6
# [9] = test system: CCRF-CEM/VBL100; experiment: cells; format: cell-based, human; conditions: Table 1A
# In short: as §6
# [10] = test system: MCF-7/Adr; experiment: cells; format: cell-based, human; conditions: Table 1C
# Experimental: Cultures were fixed with trichloroacetic acid and then stained for 30 min with 0.4% suforhodamine B dissolved in 1% acetic acid. Unbound dye was removed by acetic acid washes, and the protein-bound dye was extracted with an unbuffered Tris base (tris(hydroxy-methyl)aminomethane) for determination of absorbance at 570 nm in a 96-well microtiter plate reader. The experiments were carried out in duplicate. Each run entailed six to seven concentrations of the tested drugs.
# [11] = test system: DC-3F/ADII; experiment: SRB cytotoxicity, DC-3F/ADII; format: cell-based, hamster; conditions: Table 3; read-out: IC50
# Experimental: as §5, §1, §2
# (§7) Concerning Table 3, experiments were carried out using the cell lines DC-3F (parent hamster lung cells), DC-3F/ADII (moderate multidrug-resistant (MDR) cells) and DC-3F/ADX (very strong MDR cells).
# [12] = test system: DC-3F/ADX; experiment: cells; format: cell-based, hamster; conditions: for IC50: read-out: IC50
# Experimental: as §5, §1, §2, §7
# [13] = test system: DC-3F hamster lung fibroblast cell line; experiment: SRB cytotoxicity, DC-3F; format: cell-based; conditions: read-out: IC50
# Experimental: as §5, §1, §2
smiles,measurement,setting,value
"Cc1c2oc3c(C)ccc(C(=O)N[C@@H]4C(=O)N[C@H](C(C)C)C(=O)N5CCC[C@H]5C(=O)N(C)CC(=O)N(C)[C@@H](C(C)C)C(=O)O[C@@H]4C)c3nc-2c(C(=O)N[C@@H]2C(=O)N[C@H](C(C)C)C(=O)N3CCC[C@H]3C(=O)N(C)CC(=O)N(C)[C@@H](C(C)C)C(=O)O[C@@H]2C)c(N)c1=O [Actinomycin D, actinomycin D] (I: T[dV]P[Sar][NMeV] / II: T[dV]P[Sar][NMeV]; ester I:1-I:C, II:1-II:C; linker I:N-II:N via Actinocin(9to1))",folds of resistance (IC50 ratio vs parent cell line),[1]; SK-N-FI vs SK-N-As,(14x)
same,IC50,"[1]; SRB, 72 h, read-out: IC50",11.9 nM
same,folds of resistance (IC50 ratio vs parent cell line),[2]; P388/Adr vs P388/O,(8x)
same,IC50,"[2]; XTT, 72 h, read-out: IC50",1.2 nM
same,IC50,[3],0.68 nM
same,IC50,[4],0.15 nM
same,IC50,[5],0.85 nM
same,IC50,[6],0.35 nM
same,(C)/(A) IC50 ratio,[7],3.7
same,IC50,"[7]; Table 1A, XTT, 72 h, read-out: IC50",1.3 nM
same,(D)/(A) IC50 ratio,[8]; CCRF-CEM/VM1 vs CCRF-CEM,0.8
same,IC50,"[8]; XTT, 72 h, read-out: IC50",0.27 nM
same,(B)/(A) IC50 ratio,[9]; CCRF-CEM/VBL100 vs CCRF-CEM,109
same,IC50,"[9]; XTT, 72 h, read-out: IC50",38 nM
same,folds of resistance (IC50 ratio vs parent cell line),[10]; MCF-7/Adr vs MCF-7,(2.5x)
same,IC50,"[10]; SRB, 72 h, read-out: IC50",1.67 nM
same,IC50,[11],8.2 nM
same,fold resistance vs parent DC-3F,"[12]; DC-3F/ADX cells, listed as AD","13,000 fold"
same,folds of resistance (IC50 ratio vs parent cell line),"[12]; Table 1C, DC-3F/ADX vs DC-3F",(13000x)
same,IC50,"[12]; Table 1C, SRB, 72 h",572 nM
same,IC50,[12]; Table 3,486 nM
same,IC50,"[13]; Table 1C, SRB, 72 h",0.44 nM
same,IC50,[13]; Table 3,0.058 nM
same,IC50,"[13]; Table 3, value in parentheses",0.0582 nM
